Patent US20110039819A1, “SUBSTITUTED PHENOXYBENZAMIDES” (priority 2008, published 2011)
Where two headings read alike, the source gives them in different places.

Assays:
MEK1 = molecular target: T1, MEK1 (Homo sapiens, UniProt Q02750); assay: MEK1 activation kinase assay (Assay 2, HTRF; Cot1 phosphorylates GST-MEK1); format: biochemical
T1 construct: purchased Millipore 14-420 (GST-MEK1); 14-703 (Cot1); host or cells: Cot1: insect cells (SF21)
Experimental: MEK1 Activation Kinase Assay
The kinase Cot1 activates MEK1 by phosphorylating its activation loop. The inhibitory activity of compounds of the present invention on this activation of MEK1 was quantified employing the HTRF assay described in the following paragraphs.
As substrate for the kinase reaction the unactive C-terminally His6-tagged GST-MEK1 fusion protein (Millipore cat. no 14-420) was used.
Then the kinase reaction was started by the addition of 2 μl of a solution of Cot1 in assay buffer and the resulting mixture was incubated for a reaction time of 20 min at 22° C. The concentration of Cot1 in the assay was adjusted depending of the activity of the enzyme lot and was chosen appropriate to have the assay in the linear range, typical enzyme concentrations were in the range of about 2 ng/μl (final conc. in the 5 μl assay volume).
The resulting mixture was incubated 2 h at 22° C. to allow the binding of the phosphorylated GST-MEK1 to the anti-GST-XL665 and the Eu-cryptate labelled anti-phospho-MEK 1/2 antibody. Subsequently the amount of Ser217/Ser221-phosphorylated substrate was evaluated by measurement of the resonance energy transfer from the Eu-Cryptate-labelled anti-phospho-MEK antibody to the anti-GST-XL665.

MEK1/2 = conditions: second-generation MEK1/2 inhibitor, reference [17]; cited from earlier work
colon cancer = conditions: oral treatment, mouse models, reference [18]; cited from earlier work
[1] = mean values from 2 or more measurements, read-out: Assay 2 IC50 values (nanomolar) (MEK1 activation kinase assay) (values are mean values from 2 or more measurements)
[2] = representative example compounds, read-out: IC50 in MEK1 activation kinase assay

T1 sequence (Q02750 whole entry): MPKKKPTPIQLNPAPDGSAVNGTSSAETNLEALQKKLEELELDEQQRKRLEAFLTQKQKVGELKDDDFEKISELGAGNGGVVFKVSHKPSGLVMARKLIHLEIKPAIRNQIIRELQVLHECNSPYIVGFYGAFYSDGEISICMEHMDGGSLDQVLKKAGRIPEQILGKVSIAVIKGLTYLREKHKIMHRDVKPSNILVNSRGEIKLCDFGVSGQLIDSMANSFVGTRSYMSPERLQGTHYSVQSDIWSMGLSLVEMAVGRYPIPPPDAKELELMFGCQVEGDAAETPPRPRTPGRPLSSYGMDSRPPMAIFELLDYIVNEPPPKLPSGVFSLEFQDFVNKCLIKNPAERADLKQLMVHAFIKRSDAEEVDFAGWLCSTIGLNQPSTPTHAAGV

IC50 (MEK1; [1]) [nM] | SMILES | also measured
21.8 | CN(C)S(=O)(=O)Nc1cccc(Oc2cc(F)cc(Nc3ccc(I)cc3F)c2C(N)=O)c1 [Example 2.1, 2-[3-[[(dimethylamino)sulfonyl]amino]phenoxy]-4-fluoro-6-[(2-fluoro-4-iodophenyl)amino]-benzamide] | –
63.4 | CN(C)S(=O)(=O)NCc1cccc(Oc2cc(F)cc(Nc3ccc(I)cc3F)c2C(N)=O)c1 [Example 5.67, 6-[3-(dimethyl-aminosulfonylamino-methyl)-phenoxy]-4-fluoro-2-(2-fluoro-4-iodo-phenylamino)-6-benzamide] | –
55.3 | CCN(CC)S(=O)(=O)Nc1cccc(Oc2cc(F)cc(Nc3ccc(I)cc3F)c2C(N)=O)c1 [Example 5.38, 2-(3-diethylsulfamoyl-amino-phenoxy)-4-fluoro-6-(2-fluoro-4-iodo-phenylamino)-benzamide] | –
61.3 | CNC(=O)c1c(Nc2ccc(I)cc2F)cc(F)cc1Oc1cccc(NS(=O)(=O)N(C)C)c1 [Example 4.17, 2-[3-[[(dimethylamino)sulfonyl]amino]phenoxy]--4-fluoro-6-[(2-fluoro-4-iodophenyl)amino]-N-methyl-benzamide] | –
– | O=C(NOCC1CC1)c1ccc(F)c(F)c1Nc1ccc(I)cc1Cl [PD184352] | IC50 (MEK1/2): low nanomolar range; inhibition of colon cancer growth (colon cancer): inhibit colon cancer growth in vivo
69.9 | CN(C)S(=O)(=O)Nc1cccc(Oc2cc(F)cc(Nc3ccc(I)cc3F)c2C(=O)NCCO)c1 [Example 4.18, 2-[3-[[(dimethylamino)sulfonyl]amino]phenoxy]--4-fluoro-6-[(2-fluoro-4-iodophenyl)amino]-N-(2-hydroxy-ethyl)-benzamide] | –
137 | NC(=O)c1c(Nc2ccc(I)cc2F)cc(F)cc1Oc1cccc(NC(=O)C2CCC2)c1 [Example 5.80, 2-[3-(Cyclo-butanecarbonyl-amino)-phenoxy]-4-fluoro-6-(2-fluoro-4-iodo-phenylamino)-benzamide] | –
26.6 | NC(=O)c1cccc(Oc2cc(F)cc(Nc3ccc(I)cc3F)c2C(N)=O)c1 [Example 4.37, 2-(3-Carbamoyl-phenoxy)-4-fluoro-6-(2-fluoro-4-iodo-phenylamino)-benzamide] | IC50 (MEK1; [2]): < 1000 nM
103 | NC(=O)c1c(Nc2ccc(I)cc2F)cc(F)cc1Oc1cccc(NC(=O)c2ccsc2)c1 [Example 5.75, Thiophene-3-carboxylic acid {3-[2-carbamoyl-5-fluoro-3-(2-fluoro-4-iodo-phenylamino)-phenoxy]-phenyl}-amide] | –
29.4 | CS(=O)(=O)c1cccc(Oc2cc(F)cc(Nc3ccc(I)cc3F)c2C(N)=O)c1 [Example 10.8, 4-Fluoro-2-(2-fluoro-4-iodo-phenylamino)-6-(3-methanesulfonyl-phenoxy)-benzamide] | IC50 (MEK1; [2]): < 1000 nM
46.7 | C#Cc1ccc(Nc2cc(F)cc(Oc3cccc(NS(=O)(=O)NCCC)c3)c2C(N)=O)c(F)c1 [Example 7.3, 2-[3-[[(propylamino)sulfonyl]amino]phenoxy]-4-fluoro-6-[(4-ethynyl-2-fluorophenyl)amino]-benzamide] | –
29.5 | CC(C)(O)C(O)CCOc1cc(F)cc(Nc2ccc(I)cc2F)c1C(N)=O (single isomer, unassigned) [Example 6.4, 2-(3,4-Dihydroxy-4-methyl-pentyloxy)-4-fluoro-6-(2-fluoro-4-iodo-phenylamino)-benzamide] | –
12.3 | C#Cc1ccc(Nc2c(F)c(F)c(F)c(Oc3cccc(NS(=O)(=O)N(C)C)c3)c2C(N)=O)c(F)c1 [Example 7.4, 2-{3-[(dimethylsulfamoyl)amino]phenoxy}-6-[(4-ethynyl-2-fluorophenyl)amino]-3,4,5-trifluorobenzamide] | –
16.9 | NC(=O)c1c(Nc2ccc(I)cc2F)cc(F)cc1Oc1cccc(NS(=O)(=O)C2CCC2)c1 [Example 5.48, 2-(3-Cyclobutanesulfonyl-amino-phenoxy)-4-fluoro-6-(2-fluoro-4-iodo-phenylamino)-benzamide] | IC50 (MEK1; [2]): < 1000 nM
86.2 | NC(=O)c1c(Nc2ccc(I)cc2F)cc(F)cc1Oc1cccc(NC(=O)c2ccno2)c1 [Example 5.78, Isoxazole-5-carboxylic acid {3-[2-carbamoyl-5-fluoro-3-(2-fluoro-4-iodo-phenylamino)-phenoxy]-phenyl}-amide] | –
39.8 | Cc1cc(I)ccc1Nc1cc(F)cc(Oc2cccc(NS(=O)(=O)N(C)C)c2)c1C(N)=O [Example 2.17, 2-{3-[(dimethylsulfamoyl)amino]phenoxy}-4-fluoro-6-[(4-iodo-2-methylphenyl)amino] benzamide] | IC50 (MEK1; [2]): < 1000 nM
438 | CC(=O)N1CCC[C@@H]1COc1cc(F)cc(Nc2ccc(I)cc2F)c1C(N)=O [Example 5.39, 2-((R)-1-Acetyl-pyrrolidin-2-ylmethoxy)-4-fluoro-6-(2-fluoro-4-iodo-phenylamino)-benzamide] | –
96.5 | CCS(=O)(=O)N1CCC[C@H]1COc1cc(F)cc(Nc2ccc(I)cc2F)c1C(N)=O [Example 5.34, 2-((S)-1-Ethanesulfonyl-pyrrolidin-2-ylmethoxy)-4-fluoro-6-(2-fluoro-4-iodo-phenylamino)-benzamide] | –
25.1 | COCCS(=O)(=O)Nc1cccc(Oc2cc(F)cc(Nc3ccc(I)cc3F)c2C(N)=O)c1 [Example 5.95, 4-fluoro-2-[(2-fluoro-4-iodophenyl)amino]-6-(3-{[(2-methoxyethyl)sulfonyl]amino}phenoxy)benzamide] | –
24 | CCCNS(=O)(=O)Nc1cccc(Oc2cc(F)cc(Nc3ccc(I)cc3F)c2C(N)=O)c1 [Example 5.2, 2-[3-[[(propylamino)sulfonyl]amino]phenoxy]-4-fluoro-6-[(2-fluoro-4-iodophenyl)amino]-benzamide] | –
31.5 | NC(=O)c1c(Nc2ccc(I)cc2F)cc(F)cc1Oc1cccc(CS(N)(=O)=O)c1 [Example 4.33, 4-Fluoro-2-(2-fluoro-4-iodo-phenylamino)-6-(3-sulfamoylmethyl-phenoxy)-benzamide] | IC50 (MEK1; [2]): < 1000 nM
22.2 | CNS(=O)(=O)Nc1cccc(Oc2cc(F)cc(Nc3ccc(I)cc3F)c2C(N)=O)c1 [Example 5.41, 2-[3-[[(methylamino)sulfonyl]amino]phenoxy]-4-fluoro-6-[(2-fluoro-4-iodophenyl)amino]-benzamide] | IC50 (MEK1; IC50 in MEK1 activation kinase assay, representative example compounds): < 1000 nM
18.5 | NC(=O)c1c(Nc2ccc(I)cc2F)cc(F)cc1Oc1cccc(NS(N)(=O)=O)c1 [Example 5.7, 2-[3-[[(amino)sulfonyl]amino]phenoxy]-4-fluoro-6-[(2-fluoro-4-iodophenyl)amino]-benzamide] | –
15.7 | NC(=O)c1c(Nc2ccc(I)cc2F)cc(F)cc1Oc1cccc(NS(=O)(=O)c2c[nH]cn2)c1 [Example 5.49, 4-Fluoro-2-(2-fluoro-4-iodo-phenylamino)-6-[3-(1H-imidazole-4-sulfonylamino)-phenoxy]-benzamide] | IC50 (MEK1; [2]): < 1000 nM
13.5 | C#Cc1ccc(Nc2cc(F)cc(Oc3cccc(NS(=O)(=O)N(C)C)c3)c2C(N)=O)c(F)c1 [Example 7.2, 2-[3-[[(dimethylamino)sulfonyl]amino]phenoxy]-4-fluoro-6-[(4-ethynyl-2-fluorophenyl)amino]-benzamide] | –
152 | CC(C)(C)OC(=O)Nc1cccc(Oc2c(F)c(F)c(F)c(Nc3ccc(I)cc3F)c2C(N)=O)c1 [Example 2.19, {3-[2-Carbamoyl-4,5,6-trifluoro-3-(2-fluoro-4-iodo-phenylamino)-phenoxy]-phenyl}-carbamic acid tert-butyl ester] | IC50 (MEK1; [2]): < 1000 nM
80.1 | CN(C)S(=O)(=O)Nc1cccc(Oc2cc(F)cc(Nc3ccc(I)cc3F)c2C(=O)NCCCO)c1 [Example 4.19] | –
30.6 | CC(C)(O)C(O)CCOc1cc(F)cc(Nc2ccc(I)cc2F)c1C(N)=O (single isomer, unassigned) [Example 6.3, 2-(3,4-Dihydroxy-4-methyl-pentyloxy)-4-fluoro-6-(2-fluoro-4-iodo-phenylamino)-benzamide] | –
23.5 | CS(=O)(=O)Cc1cccc(Oc2cc(F)cc(Nc3ccc(I)cc3F)c2C(N)=O)c1 [Example 4.34, 4-Fluoro-2-(2-fluoro-4-iodo-phenylamino)-6-(3-methane-sulfonylmethyl-phenoxy)-benzamide] | IC50 (MEK1; [2]): < 1000 nM
20.4 | NC(=O)c1c(Nc2ccc(I)cc2F)cc(F)cc1Oc1cccc(NS(=O)(=O)C2CCCC2)c1 [Example 5.37, 2-(3- Cyclopentanesulfonylamino-phenoxy)-4-fluoro-6-(2-fluoro-4-iodo-phenylamino)-benzamide] | –

SMILES | IC50 (MEK1; [1]) [nM] | also measured
CC(O)(CO)CCOc1cc(F)cc(Nc2ccc(I)cc2F)c1C(N)=O (single isomer, unassigned) [Example 6.5, 2-(3,4-Dihydroxy-3-methyl-butoxy)-4-fluoro-6-(2-fluoro-4-iodo-phenylamino)-benzamide] | 172 | –
CC(O)(CO)CCOc1cc(F)cc(Nc2ccc(I)cc2F)c1C(N)=O (single isomer, unassigned) [Example 6.6, 2-(3,4-Dihydroxy-3-methyl-butoxy)-4-fluoro-6-(2-fluoro-4-iodo-phenylamino)-benzamide] | 80.3 | –
